The values below are quoted from earlier work in patent US5891469A, “Solid Coprecipitates for enhanced bioavailability of lipophilic substances” (Pharmos Corporation, priority 1997, dated 1999).

Each structure is given as a SMILES string.

For data set [1] the following is noted: for solubility in aqueous solutions: cannabinoids, depending upon the conditions (Garret and Hunt 1974).
The conditions of data set [2]: like other lipophilic drugs.

As for `CCCCCc1cc(O)c2c(c1)OC(C)(C)c1ccc(C)cc1-2` [cannabinol], the “solubility in aqueous solutions” value in data set [1] was “a few micrograms/ml or less”.

With `CCCCCCC(C)(C)c1cc(O)c2c(c1)OC(C)(C)[C@H]1CC=C(CO)C[C@H]21` [Dexanabinol, (+)-(3S, 4S)-7-hydroxy-Δ^6-tetra hydrocannabinol-1,1-dimetylheptyl], in data set [2], the oral bioavailability entry is reported as “poor oral bioavailability”. Further, the solubility in water entry in data set [1] (practically insoluble in water) was “less than 50 μg/ml”.

In the case of `C=C(C)[C@@H]1CCC(C)=C[C@H]1c1c(O)cc(CCCCC)cc1O` [cannabidiol], in data set [1], the “solubility in aqueous solutions” value is recorded as “a few micrograms/ml or less”.

For the compound `CCCCCc1cc(O)c2c(c1)OC(C)(C)[C@@H]1CCC(C)=C[C@@H]21` [tetrahydrocannabinol (THC), tetrahydrocannabinol], the maximal plasma levels entry (oral dosing of 20 mg THC in a sesame oil formulation (Wall et al. 1983)) is on record as “around 10 ng/ml”. The “human bioavailability following oral ingestion, mean estimates” value (oral, depending on the vehicle used) was 6 to 12%.

For `CCCCCc1cc(O)c2c(c1)OC(C)(C)[C@@H]1CCC(C)=C[C@@H]21` [Δ^1 -tetrahydrocannabinol (Δ^1 -THC), Δ^1 -tetrahydrocannabinol], the “solubility in aqueous solutions” value in data set [1] is on record as “a few micrograms/ml or less”.

For the compound `COC1=C(OC)C(=O)C(C/C=C(\C)CC/C=C(\C)CC/C=C(\C)CC/C=C(\C)CC/C=C(\C)CC/C=C(\C)CC/C=C(\C)CC/C=C(\C)CC/C=C(\C)CCC=C(C)C)=C(C)C1=O` [Coenzyme Q10, 2,3-dimethoxy-5-methyl-6-decaprenyl-1,4-benzoquinone], the “solubility in water (in words)” value in data set [1] (due to long side chain of 10 isoprenoid units) is recorded as “practically insoluble in water”.

As to `CCCCCc1cc(O)c2c(c1)OC(C)(C)[C@@H]1CC=C(C)C[C@@H]21` [Δ^6 -tetrahydrocannabinol (Δ^6 -THC), Δ^6 -tetrahydrocannabinol], in data set [1], the “solubility in aqueous solutions” value is “a few micrograms/ml or less”.
